Drawing on a melting point compilation (Tetko et al.; mined from patent text by program, amines drawn as free bases though some values may be those of a salt), this text covers melting point for 86 molecules.

With `CS(=O)(=O)c1ccc2c([N+](=O)[O-])cc3c(c2c1)C(CCl)CN3` (stereo unspecified), the melting point is 193 to 194 °C.

For the molecule `CC(=O)c1ccc(C(C)(c2ccc(C(C)=O)cc2)c2ccc(C(C)=O)cc2)cc1`, the melting point is 232 °C.

In the case of `COc1ccc(-n2nc(Sc3ccc4ccccc4c3)c(C)c(C#N)c2=O)cc1`, the melting point was 169 to 170 °C.

In the case of `CCCOc1ccccc1-c1nc2c(C=CCc3ccccc3)cccc2c(=O)[nH]1`, the melting point was in the range of 123 to 126 °C.

`O=C(Nc1ccc(C(F)(F)F)cc1)Nc1ccc(S(=O)(=O)NCCN2CCOCC2)cc1` registered a melting point of 62 to 65 °C.

In turn, `COC(=O)C[C@@H]1CCC/C1=C\Cc1c(O)c2c(c(C)c1OC)COC2=O` gave a melting point of 72 to 74 °C.

Consider `Cc1cc(C)nc(SCc2nccc(SCCCSc3ccc4ncc([N+](=O)[O-])n4n3)c2C)n1`, for which the melting point was in the range of 145 to 147 °C.

On to `OCCC1CC(n2nnc3c(NC4CC4c4ccccc4)nc(Sc4ccc(C(F)(F)F)cc4)nc32)C(O)C1O` (stereo unspecified), for which the melting point was in the range of 100 to 102 °C.

As to `Cc1c(C)c2c(c(C)c1O)CC[C@@](C)(CCO)O2`, the melting point stood at 155 °C.

`CC1COCc2nc3c(N)nc4ccc(OC(=O)N5CCCC5)cc4c3n21` (stereo unspecified) yielded a melting point of 218 to 219 °C.

`NC(=O)NCc1ccc(CNC(=O)[C@@H](CCCNC(N)=N[N+](=O)[O-])NC(=O)OCc2ccc3ccccc3c2)cc1` yielded a melting point of 155 to 160 °C.

Take `Cn1ncc2c1CCCc1cn[nH]c1-2`: the melting point lay within 153 to 155 °C.

For `O=C1C=CC(=O)N1c1cccc(I)c1`, the melting point was 154 to 155 °C.

In the case of `CC(C)(C)OC(=O)N[C@H]1CC[C@H](CCN2CCN(c3nccc4c3OCC4)CC2)CC1`, the melting point is 141 °C.

The molecule `CCCNC(=O)CCCCOc1ccc2c(c1)CCCN2C1CC(C)N(C(=O)c2cc(OC)c(OC)c(OC)c2)c2ccccc21` (stereo unspecified) displayed a melting point of 124 to 133 °C.

On to `CC(C)n1cc2c3c(cccc31)C1CC(C(=O)NC3CCCCC3)CN(C)C1C2` (stereo unspecified), for which the melting point is more than 250 °C.

With `CCCCCCCCCCC1COC(=O)N1C(C)=O` (stereo unspecified), the melting point lay within 51 to 53 °C.

In turn, `CC(C)(C)c1cc2c(c(C(C)(C)C)c1O)CC1(CCSCC1)O2` displayed a melting point of 209 °C.

Regarding `NCC(O)COc1cccc2ccccc12` (stereo unspecified), the melting point amounted to 106 °C.

In the case of `COc1ccc(C(=O)CCCCCN2CCC(CNC(=O)c3cc(Cl)c(N)cc3OC)CC2)cc1F`, the melting point lay within 112 to 113 °C.

On to `CC(C)S(=O)(=O)c1ccc2c(c1)nc(CC1CC1)n2CC1CC1`, for which the melting point came to 107 °C.

The molecule `Nc1csc2c([N+](=O)[O-])cccc12` had a melting point of 188 to 191 °C.

In turn, `CCOc1ccc(S(=O)(=O)N(CC(=O)NN=C2C(=O)Nc3ccc([N+](=O)[O-])cc32)c2ccccc2)cc1` displayed a melting point of 252 to 253 °C.

In turn, `COC(C)=CC(=O)Nc1cccc(N)c1` came in with a melting point of 132 °C.

As for `COC(=O)C(Cc1ccc(OCCc2nc(-c3ccccc3)oc2C)cc1)C(=O)N(C)C` (stereo unspecified), the melting point fell in the range of 114 to 115 °C.

Molecule `CCOC(=O)c1cnn2c1c(NC(C)CC)nc1ccccc12` (stereo unspecified) returned a melting point of 82 to 84 °C.

On to `COc1cccc(C=CC(=O)CC(=O)C=Cc2cccc(OC)c2OC)c1OC`, for which the melting point fell in the range of 117 to 120 °C.

`CS(=O)(=O)OCCOc1ccccc1OCC1CC1` returned a melting point of 90 to 91 °C.

Regarding `CC(C)(C)c1cc(C(=O)Nc2ccc([N+](=O)[O-])cc2)cc(C(C)(C)C)c1O`, the melting point lay within 277 to 278 °C.

In turn, `CC1CCCN1Cc1ccc(N/C=C2\C(=O)NC(=O)c3ccc(I)cc32)cc1` (stereo unspecified) came in with a melting point of 157 to 158 °C.

The molecule `C=CCN(CC=C)c1nc(NC(=O)Cc2cccs2)n2oc(=O)nc2n1` gave a melting point of 140 to 142 °C.

As for `O=C1COC(C#Cc2ccccc2)(C(F)(F)F)c2cc(Cl)ccc2N1` (stereo unspecified), the melting point was in the range of 190 to 191 °C.

With `CS(=O)(=O)Nc1ccc(OCCCc2ccc(OCCCCOc3ccccc3)cc2)c(C(=O)O)c1`, the melting point was in the range of 86 to 88 °C.

For the molecule `CCC(=O)NCC[C@@H]1CCc2ccc3c(c21)CCO3`, the melting point was 113 to 115 °C.

In turn, `O=C(c1ccccc1O)c1ccccc1Br` showed a melting point of 78 °C.

In turn, `O=C1Nc2ccc(Cl)cc2C2(c3ccccc3)OCCN12` (stereo unspecified) gave a melting point of 216 to 217 °C.

`CC1CCC2CC(=O)N(Cc3ccccc3)C3OC4(C)CCC1C23OO4` (single isomer, unassigned; (-)) came in with a melting point of 177 to 179 °C.

`CC(C)c1ccc(CCC(O)CC2CCCCC2)cc1NC(=O)CC1c2ccccc2Oc2ccccc21` (stereo unspecified) registered a melting point of 144 to 145 °C.

As for `CC(C(O)c1cc(F)c(OCc2ccccc2)c(F)c1)N1CCC(O)(c2ccc(C(F)(F)F)cc2)CC1` (stereo unspecified), the melting point lay within 201 to 202 °C.

For the molecule `CC1(C)CC(C)(C)CC(CCCC(=O)O)(NC(=O)CCl)C1`, the melting point was 140 to 141 °C.

In turn, `CCC(=O)N1CCC[C@H]1C(=O)O` had a melting point of 98 to 99 °C.

`CCC(CC)Oc1cc(C)nc2c1nc(N)n2-c1c(C)cc(C)cc1C`: the melting point was in the range of 159 to 161 °C.

Consider `CC1(N)CN(c2c(F)c(N)c3c(=O)c(C(=O)O)cn(C4CC4)c3c2F)C1`, for which the melting point was in the range of 243 to 247 °C.

Turning to `COc1ccc(-c2cc(C(=O)O)c(=O)n(Cc3ccc(F)cc3)n2)cc1F`, the melting point lay within 222 to 224 °C.

In turn, `CSc1nc(Cl)cc2cnc(C)n12` gave a melting point of 153 to 155 °C.

The molecule `CN(C)C(=O)CCC(=O)NC1CCC(CCN2CCN(c3nccc4c3OCC4)CC2)CC1` (stereo unspecified) registered a melting point of 178 °C.

`CCc1ccc(S(=O)(=O)Nc2ccc(Cl)cc2[N+](=O)[O-])cc1` yielded a melting point of 104 to 106 °C.

Regarding `Cc1ccc(C2OCC(C)(CO)CO2)cc1` (stereo unspecified), the melting point fell in the range of 104 to 106 °C.

With `O=C(Nc1nccs1)c1nc(-c2cccc3ccccc23)[nH]c1-c1ccc(C(F)(F)F)cc1`, the melting point fell in the range of 222 to 223 °C.

The molecule `COc1ccc(S(=O)(=O)/C(=C/C(=O)NO)CCCCc2ccccc2)cc1OC` showed a melting point of 123 to 126 °C.

`CCCc1c(OCc2ccc3ncc(CCC(=O)O)c(=O)n3c2)ccc(C(C)=O)c1O` had a melting point of 190 to 194 °C.

As for `CCCc1c(OCCCOc2ccc3c(c2CCC)OC(C(=O)OC)CC3)ccc(C(C)=O)c1O` (stereo unspecified), the melting point fell in the range of 70 to 72 °C.

Consider `COC(=O)c1cc(I)c(O)c(C(C)(C)C)c1`, for which the melting point came to 67 °C.

Consider `COc1cc(Cc2cnc(N)nc2N)cc2c1OC(C)(C)C=C2c1ccccc1`, for which the melting point was more than 260 °C.

Molecule `O=C(O)c1cc2c(cc1C(=O)O)C(c1ccccc1)(C(F)(F)F)c1cc(C(=O)O)c(C(=O)O)cc1O2` had a melting point of 276 °C.

As to `CCN(CC)C(=O)c1cc(-c2ccccc2)c(=O)n2c1-c1cc(Cl)ccc1CN2`, the melting point fell in the range of 192 to 194 °C.

In the case of `ClCc1ccnc(OCc2cn3c(Cl)cccc3n2)c1`, the melting point lay in the range of 118 to 119 °C.

For the molecule `Oc1ccc(Nc2nccc(-c3cccnc3)n2)cc1`, the melting point was in the range of 223 to 225 °C.

As to `CC(=O)N1CC(C)c2c1cc(C)c(O)c2C` (stereo unspecified), the melting point lay in the range of 204 to 205 °C.

For the molecule `Cc1cc(C)c(NC(=O)N(Cc2cc3ccccc3c3ccccc23)C2CCCCC2)c(C)c1`, the melting point was 125 to 128 °C.

Consider `Nn1c(=O)n(-c2cc(Cl)ccc2O)c2ccc(C(F)(F)F)cc21`, for which the melting point lay in the range of 228 to 230 °C.

On to `CCc1nc(-c2cc3[nH]c(=O)c(=O)[nH]c3cc2[N+](=O)[O-])c[nH]1`, for which the melting point lay within 249 to 250 °C.

As to `COC(=O)C1(C)CC(C(=O)Nc2ccc(I)cc2)=NN1c1ccc(F)cc1` (stereo unspecified), the melting point fell in the range of 84 to 85 °C.

Regarding `CCS(=O)(=O)c1cc2c(O)cccc2o1`, the melting point lay in the range of 145 to 147 °C.

Consider `CCOC(=O)/C=C/c1cccc(Br)c1`, for which the melting point was in the range of 26 to 28 °C.

In turn, `CCCN(CCC)C1COc2cccc(C(=O)C3CC3)c2C1` (stereo unspecified) came in with a melting point of 100 to 102 °C.

In turn, `CCCC[C@H](CN(C=O)OCc1ccccc1)C(=O)N1CCC[C@H]1C(=O)Nc1ccc(F)cn1` displayed a melting point of 98 °C.

Consider `Cc1nn(-c2ccccc2)c(-c2ccccc2)c1NC(N)=S`, for which the melting point lay within 212 to 214 °C.

The molecule `CCCN(CCCc1csc2ccc(F)cc12)C1COc2cccc(OC)c2C1` (stereo unspecified) registered a melting point of 78 °C.

`O=C(O)c1ccc(OCCNC(=O)C2Cc3ccccc3N2S(=O)(=O)c2ccc(-c3ccc(F)cc3F)cc2)cc1` (stereo unspecified) came in with a melting point of 92 °C.

`Cc1ccc2c(c1C)OC(C)(C)C2=O` came in with a melting point of 79 to 81 °C.

As for `O=C1CCN(Cc2ccccc2)CC1C1c2ccccc2C=Cc2ccccc21` (stereo unspecified), the melting point was in the range of 167 to 169 °C.

As to `CNC(=O)C(C)Oc1ncn(-c2cccc(C(F)(F)F)c2)n1` (stereo unspecified), the melting point is 137 to 139 °C.

Molecule `O=c1[nH]cc(C(F)(F)F)cc1Br` gave a melting point of 162 to 165 °C.

The molecule `CC=C(Oc1nc(OC)cc(OC)n1)C(=O)OC` registered a melting point of 71 °C.

`CC#CC(=O)N[C@H]1CC[C@H](CCN2CCN(c3nccc4c3OCC4)CC2)CC1` registered a melting point of 176 °C.

`CCCCN(Cc1ccc(-c2ccccc2-c2nnn[nH]2)cc1)c1ncc(C(=O)O)s1` showed a melting point of 183 to 184 °C.

`O=c1[nH][nH]c(=O)c2c(O)c3ccc(C(F)(F)F)cc3nc12`: the melting point lay in the range of 170 to 172 °C.

Consider `CCSC(C)(C)C(=O)CC(=O)Nc1cc(NC(=O)C(CC)Oc2ccc(C(C)(C)CC)cc2C(C)(C)CC)ccc1OC` (stereo unspecified), for which the melting point lay within 65 to 67 °C.

In turn, `Cn1c(-c2ccccc2)c(CCCl)sc1=O` had a melting point of 88 to 90 °C.

As to `O=S(=O)(Cl)c1ccc(SSc2ccc(S(=O)(=O)Cl)cc2)cc1`, the melting point amounted to 139 °C.

The molecule `CCNc1c(C#N)cnn1-c1ccc(Cl)c(Cl)c1Cl` returned a melting point of 145 °C.

On to `CCCN(SCNC(=O)ON=C(C)SC)P(=S)(OCC)OCC`, for which the melting point lay in the range of 68 to 69 °C.

In turn, `N#Cc1cccc(-c2cnc3cnc(-c4ccc(O)cc4)nc3c2)c1` showed a melting point of more than 268 °C.

In the case of `CC(C)(C)OC(=O)N[C@H](Cc1ccccc1)C(=O)OCCCNc1cccc2c1C(=O)c1ccccc1C2=O`, the melting point came to 168 °C.

The molecule `CNC(=O)[C@@H]1CCCN1S(=O)(=O)c1ccc(Cl)c(COc2cccc3c2NC(C)(C)C=C3n2cncn2)c1Cl` registered a melting point of 131 °C.

For orientation: melting point means the temperature, or range, at which the solid turns liquid.
